Assay results as given in patent publication US20090203744A1, “NOVEL PYRIDINE DERIVATIVES” (priority 2005, published 2009).

What follows are compounds tested on Streptozotocin induced diabetic mice (assay: Antidiabetic activity in Streptozotocin induced diabetic mice). Conditions: plasma, 50 mg/kg oral for 7 days, fasted 6 hours, compared to control group.
Format: in vivo
Method: Male Swiss albino mice were used in the study at the age of 10 weeks. Diabetes was induced in animals by injecting Streptozotocin by i.p. route at a dose of 200-mg/kg-body weight. 48 hours after Streptozotocin administration, the animals were kept for fasting for 6 hours and blood was collected and plasma separated and glucose was estimated. Animals showing greater than 200 mg/dl glucose levels were considered as diabetic and these animals were randomly distributed into various groups. The compounds listed in the table 2 were administered at a dose of 50-mg/kg body weight by oral route for 7 days. Later animals were fasted for 6 hours and blood was collected and plasma separated. Biochemical estimations like glucose, cholesterol and triglycerides were carried out using the plasma. The effect of compounds mentioned in the table was expressed in terms of percentage reduction in biochemical values as compared to control group.

SMILES	% Reduction Triglyceride [%]	% Reduction Cholesterol [%]	% Reduction Glucose [%]
CN1C(=O)OC[C@@H]1Cc1ccc(Oc2ccc(Nc3ncccc3C#N)cc2F)cc1 [Example 22, 2-{[3-fluoro-4-(4-{[(4S)-3-methyl-2-oxo-1,3-oxazolidin-4-yl]methyl}phenoxy)phenyl]amino}nicotinonitrile]	5.2		
CCN(c1ccc(Oc2ccc(C[C@H]3COC(=O)N3CC)cc2)cc1)c1ncccc1C#N [Example 24, (4S)-2-[ethyl(4-{4-[(3-ethyl-2-oxo-1,3-oxazolidin-4-yl)methyl]phenoxy}phenyl)amino]nicotinonitrile]	13.7	15.9	
CN(c1ccc(Oc2ccc(C[C@H]3COC(=O)N3C)cc2)cc1)c1ncccc1C#N [Example 45, (4S)-2-[methyl(4-{4-[(3-methyl-2-oxo-1,3-oxazolidin-4-yl)methyl]phenoxy}phenyl)amino]nicotinonitrile]	53.8	10	39

Each compound was assayed on 3T3-L1 cells (assay: Glucose uptake assay using 3T3-L1 cells). Conditions: differentiated 3T3-L1 adipocytes, 1 μM, 72 hours, 14C deoxyglucose uptake for 10 minutes; with reference to stimulation index of BLX-1002.
Format: cell-based
Method: 3T3-L1 cells were differentiated by the addition of differentiation cocktail (72 μg/ml insulin, 0.5 mM IBMX, 400 ng/ml Dexamethasone) for 4 days and later fed with media without differentiation cocktail for 7-8 days. After differentiation the cells were incubated with the either the reference compound BLX-1002 or compounds listed in the table 1 at 1 μM concentrations for 72 hours and carried out the glucose uptake assay for 10 minutes by the addition of KRP buffer supplemented with 2.5 μCi/ml ^14C deoxy glucose. Stimulation Index is defined as the amount of ^14C Deoxyglucose uptake induced by 1 μM of BLX-1002 incubated for 72 hours in an assay condition as per protocol described above with differentiated 3T3-L1 adipocytes. Values of compounds mentioned in table-1 are with reference to stimulation index of reference compound BLX-1002.

SMILES	Stimulation Index
CN1C(=O)OC[C@@H]1Cc1ccc(Oc2ccc(Nc3ccccn3)cc2)cc1 [Example 1, 3-methyl-4-{4-[4-(pyridin-2-ylamino)phenoxy]benzyl}-1,3-oxazolidin-2-one]	0.827
CN1C(=O)OC[C@@H]1Cc1ccc(Oc2ccc(Nc3ccc([N+](=O)[O-])cn3)cc2)cc1 [Example 2, (4S)4-(4-{4-[(5-nitropyridin-2-yl)amino]phenoxy}benzyl)-3-methyl-1,3-oxazolidin-2-one]	0.935
CCN1C(=O)OC[C@@H]1Cc1ccc(Oc2ccc(Nc3ccccn3)cc2F)cc1 [Example 8, (4S)-4-[4-(2-fluoro-4-{[5-pyridin-2-yl]amino}phenoxy)benzyl]-3-ethyl-1,3-oxazolidin-2-one]	1.049
CCN1C(=O)OC[C@@H]1Cc1ccc(Oc2ccc(Nc3ncccc3[N+](=O)[O-])cc2F)cc1 [Example 12, (4S)-4-[4-(2-fluoro-4-{[3-nitropyridin-2-yl]amino}phenoxy)benzyl]-3-ethyl-1,3-oxazolidin-2-one]	0.935
CCN1C(=O)OC[C@@H]1Cc1ccc(Oc2ccc(Nc3ncccc3C#N)cc2F)cc1 [Example 13, 2-{[3-fluoro-4-(4-{[(4S)-3-ethyl-2-oxo-1,3-oxazolidin-4-yl]methyl}phenoxy)phenyl]amino}nicotinonitrile]	0.874
CCN1C(=O)OC[C@@H]1Cc1ccc(Oc2ccc(Nc3ncccc3C#N)cc2)cc1 [Example 14, 2-[(4-{4-[(3-ethyl-2-oxo-1,3-oxazolidin-4-yl)methyl]phenoxy}phenyl)amino]nicotinonitrile]	0.827
